According to BigSolDB 2.1:

O=C1CCC(=O)O1
solubility (mole fraction)
Conditions | 283.15 K | 288.15 K | 293.15 K | 298.15 K | 303.15 K | 308.15 K | 313.15 K | 318.15 K | 323.15 K
in THF | 0.071 | 0.077 | 0.085 | 0.093 | 0.104 | 0.115 | 0.129 | 0.145 | 0.164
in gamma-butyrolactone | 0.197 | 0.218 | 0.239 | 0.261 | 0.283 | 0.307 | 0.331 | 0.354 | 0.378
